Laboratory results as given in patent US7695918B2 (priority 2002, dated 2010).
Like-named read-outs stand apart in the source and are kept apart here.

Experiments:
PrP^sc [1] = tested on: PrP^sc
PrP^sc [2] = format: binding, bovine
PrP^sc [3] = target: PrP^sc (Ovis aries, UniProt P23907); format: binding; details: 2000 μg streptomycin; PrP^sc from 920 μg sheep brain afflicted with trembling; from increase of apparent molecular weight
PrP^sc [4] = details: precipitates, ESB bovine brain homogenate
[5] = target: recPrP (recombinant protein prion) (Homo sapiens, UniProt P04156); details: recPrP 42 μM diluted with an equivalent volume of streptomycin 1 g/ml; dried on mica
protein prion [6] = format: binding, human; details: 50 μg/ml final concentration streptomycin; LCR(+) at any proteinase K concentration, LCR(−) only without digestion
protein prion [7] = target: protein prion (Homo sapiens, UniProt P04156); format: binding; details: LCR

Sequence of PrP^sc (Ovis aries, UniProt P23907) (P23907 25-233 limits assumed): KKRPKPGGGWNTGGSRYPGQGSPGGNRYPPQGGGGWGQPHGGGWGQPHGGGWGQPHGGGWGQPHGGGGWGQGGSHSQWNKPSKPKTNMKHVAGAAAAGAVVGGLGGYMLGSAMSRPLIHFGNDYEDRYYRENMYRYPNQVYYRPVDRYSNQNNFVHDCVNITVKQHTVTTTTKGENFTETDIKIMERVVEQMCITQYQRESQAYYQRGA

In the case of `[H]/N=C(/N)N[C@H]1[C@H](O)[C@@H](O)[C@H](O[C@@H]2O[C@@H](C)[C@](O)(C=O)[C@H]2O[C@@H]2O[C@@H](CO)[C@H](O)[C@@H](O)[C@@H]2NC)[C@@H](N/C(N)=N\[H])[C@@H]1O` [streptomycin], the “detection of PrP^sc compared with the reference technique” value (PrP^sc [1]) was “permits better detection of cases that are slightly positive”, the “precipitation of PrP^sc” value (PrP^sc [2]; 20 μl streptomycin at 1 g/ml, 100 μl bovine brain suspension after proteinase K, second hour at 37° C.) was “totally precipitated the PrP^sc” and the “location of PrP^sc bands (supernatant or bottom)” value (PrP^sc [2]; brain sample diluted 1/25, proteinase K and streptomycin added simultaneously, one hour incubation) was “in the bottom in the presence of any concentration of streptomycin”. The “number of streptomycin molecules attached per band of PrP^sc” value (PrP^sc [3]) was 10 to 12 molecules of streptomycin per band of PrP^sc, the “dilution down to which PrP^sc is detectable” value (PrP^sc [4]; 5 μl streptomycin, without streptomycin the limit is 1/16) was 1/128 and the “dilution down to which PrP^sc is detectable” value (PrP^sc [4]; 10 μl streptomycin, most diluted sample tested) was 1/256. For the same compound, the “surface organization of the film of the recPrP/streptomycin mixture” value [5] was “amorphous surface”, the “apparent molecular mass of the band observed after streptomycin treatment” value (protein prion [6]) was “approximately 35 kDa” and the “apparent size of the protein prion band after streptomycin treatment” value (protein prion [7]; 0.1 g/ml streptomycin, no proteinase K digestion) was “approximately 50 kDa”. For the same compound, the “binding of streptomycin to the protein prion” value (protein prion [7]; absence of digestion by proteinase K, streptomycin 0.1 and 0.2 g/ml) was “bonds well to the protein prion”.
